± gives the expanded uncertainty stated by the source.
Conditions: Liquid, Closed cell (Static) method

Q: Which “vapor or sublimation pressure” value (283.15 K) does the source give for `CN(C)CCOCCO` [2-(2-dimethylaminoethoxy)ethanol] here?
A: The value was 0.007 ± 0.0003 kPa.

Q: And the “vapor or sublimation pressure” value (293.14 K)?
A: Its value is 0.016 ± 0.0006 kPa.

Q: What about the “vapor or sublimation pressure” value (303.09 K) of the same compound?
A: Its value is 0.0346 ± 0.0009 kPa.

Q: And the “vapor or sublimation pressure” value (313.08 K)?
A: Its value is 0.0707 ± 0.0014 kPa.

Q: What about the “vapor or sublimation pressure” value (323.28 K) of the same compound?
A: The value was 0.1418 ± 0.0022 kPa.

Q: And the “vapor or sublimation pressure” value (333.12 K)?
A: The value was 0.2604 ± 0.0031 kPa.

Q: What about the “vapor or sublimation pressure” value (343.12 K) of the same compound?
A: Its value is 0.4742 ± 0.0049 kPa.

Q: And the “vapor or sublimation pressure” value (353.14 K)?
A: The value was 0.8145 ± 0.0077 kPa.

Q: What about the “vapor or sublimation pressure” value (363.35 K) of the same compound?
A: The value was 1.419 ± 0.011 kPa.

Q: What about the “vapor or sublimation pressure” value (373.1 K) of the same compound?
A: The value was 2.315 ± 0.013 kPa.

Source: the NIST ThermoML archive (doi:10.1016/j.jct.2010.07.008)
